Measurements as given in patent publication EP4467141A1, “PYRAZOLO-QUINOLINES AS SELECTIVE INHIBITORS OF GENOTOXIC STRESS-INDUCED IKK/NF- KB PATHWAYS FOR CANCER THERAPY” (Max-Delbrück-Centrum für Molekulare Medizin in der …, priority 2023, dated 2024).
Like-named read-outs stand apart in the source and are kept apart here.

Assays:
Assay in all cases: Kinase panel study
Format in all cases: biochemical
Conditions in all cases: for inhibition at 1 µM: 1000nM
GSG2 (Haspin) = target: T1, GSG2 (Haspin) (Homo sapiens, UniProt Q8TF76)
T1 construct: purchased Thermo Fisher Scientific
T1 sequence (Q8TF76 1-798): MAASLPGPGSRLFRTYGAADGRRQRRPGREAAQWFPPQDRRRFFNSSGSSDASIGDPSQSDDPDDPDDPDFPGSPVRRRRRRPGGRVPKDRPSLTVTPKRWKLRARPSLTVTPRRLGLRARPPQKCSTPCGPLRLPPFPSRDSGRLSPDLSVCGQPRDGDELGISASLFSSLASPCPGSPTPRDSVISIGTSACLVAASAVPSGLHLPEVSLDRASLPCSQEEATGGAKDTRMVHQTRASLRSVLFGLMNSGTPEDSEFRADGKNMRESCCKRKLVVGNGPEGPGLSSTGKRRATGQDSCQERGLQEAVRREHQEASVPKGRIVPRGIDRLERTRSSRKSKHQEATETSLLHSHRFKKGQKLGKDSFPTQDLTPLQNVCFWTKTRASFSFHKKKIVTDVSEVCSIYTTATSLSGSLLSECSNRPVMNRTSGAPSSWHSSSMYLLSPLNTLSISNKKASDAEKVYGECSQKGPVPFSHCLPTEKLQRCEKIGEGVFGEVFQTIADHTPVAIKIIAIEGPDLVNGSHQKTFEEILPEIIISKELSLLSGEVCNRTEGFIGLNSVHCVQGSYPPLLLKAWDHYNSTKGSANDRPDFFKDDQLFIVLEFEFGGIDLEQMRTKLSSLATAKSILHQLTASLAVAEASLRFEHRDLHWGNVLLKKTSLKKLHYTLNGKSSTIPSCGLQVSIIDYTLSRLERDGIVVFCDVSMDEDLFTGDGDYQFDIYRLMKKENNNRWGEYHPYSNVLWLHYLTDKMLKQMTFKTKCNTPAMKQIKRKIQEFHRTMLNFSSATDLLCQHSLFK
Experimental: (§1) The Kinase panel study was entirely provided by Thermo Fisher Scientific using the two lead compounds MW01 and MW05 as well as their derivatives (MW01-E06, MW01-E10, MW01-E14, MW01-E18, MW05-E2, MW05-E3, MW05-E9 and MW05-E10. The experiment was performed using the ZLyte or Adapta protocol according to manufacturer standard operating procedures.
(§2) Based on their similar effects in our screen and molecular analysis, MW01 and MW05 were used in comparative target deconvolution studies seeking common targets despite their distinct structures. To eliminate previously identified kinases regulating NF-κB activity, such as IKK, as possible targets of MW01 and MW05, an in vitro kinase inhibition assay was performed. […] We next investigated if any of the shared kinase targets of MW01 and MW05 play a role in genotoxic stress-induced NF-κB activity and established several criteria to narrow down pathway-relevant targets. Considering the similar NF-κB inhibition phenotypes of both compounds, we hypothesized first that the target should be shared by both lead compounds. Second, based on the CaCo2 recovery values and experimental treatment concentration of 10 µM), the putative target kinase should have a low IC50 of, at most, 2000 nM for both lead compounds in the in vitro kinase panel (Fig. 2A). Based on these criteria alone, we arrived at a relatively short list of potential targets for further analysis, leaving only PIK3CG, PIK3C2G, and CLK2 (Fig. 2B). IC50 values for PIK3C2G by both lead compounds agreed best with these criteria, but RNA expression analysis indicates high tissue specificity as well as lack of expression of this kinase in our U2-OS model cell line, which we then eliminated from further analysis (Uhlén et al., 2015). […] Table 6: Percentage of inhibition of the indicated kinases by MW01 or MW05 at either 10 µM or 1 µM. n.d. = not determined.

PI4KB (PI4K beta) = target: T2, PI4KB (PI4K beta) (Homo sapiens, UniProt Q9UBF8)
T2 construct: purchased Thermo Fisher Scientific
Experimental: as §1, §2

PIP5K1C = target: T3, PIP5K1C (Homo sapiens, UniProt O60331)
T3 construct: purchased Thermo Fisher Scientific
Experimental: as §1, §2

LRRK2 = target: T4, LRRK2 (Homo sapiens, UniProt Q5S007)
T4 construct: purchased Thermo Fisher Scientific
Experimental: as §1, §2

[1] = read-out: Percentage of inhibition
[2] = 10000nM, read-out: Percentage of inhibition
[3] = GSG2 (Haspin), compound at 10µM, read-out: % of Inhibition
[4] = PI4KB (PI4K beta), compound at 10µM, read-out: % of Inhibition
[5] = PIP5K1C, compound at 10µM, read-out: % of Inhibition
[6] = LRRK2, compound at 10µM, read-out: % of Inhibition

T3 sequence (O60331 whole entry): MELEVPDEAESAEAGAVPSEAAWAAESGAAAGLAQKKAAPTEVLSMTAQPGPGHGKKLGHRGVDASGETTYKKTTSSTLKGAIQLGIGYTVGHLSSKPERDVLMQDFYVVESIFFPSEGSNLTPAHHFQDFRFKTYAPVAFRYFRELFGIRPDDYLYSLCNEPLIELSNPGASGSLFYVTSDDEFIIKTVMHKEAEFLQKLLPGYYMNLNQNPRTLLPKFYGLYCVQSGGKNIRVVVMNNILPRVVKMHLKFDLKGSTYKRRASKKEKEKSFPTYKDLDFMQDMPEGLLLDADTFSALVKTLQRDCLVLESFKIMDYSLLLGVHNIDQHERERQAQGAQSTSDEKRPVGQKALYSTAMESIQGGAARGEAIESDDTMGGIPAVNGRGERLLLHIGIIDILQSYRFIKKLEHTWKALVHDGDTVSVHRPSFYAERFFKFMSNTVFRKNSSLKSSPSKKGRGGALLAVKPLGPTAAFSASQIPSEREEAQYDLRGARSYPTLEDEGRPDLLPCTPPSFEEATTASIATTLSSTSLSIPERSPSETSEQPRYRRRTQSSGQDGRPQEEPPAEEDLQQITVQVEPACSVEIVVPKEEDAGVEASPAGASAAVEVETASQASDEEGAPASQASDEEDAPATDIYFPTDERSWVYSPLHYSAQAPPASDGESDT
T2 sequence (Q9UBF8 whole entry): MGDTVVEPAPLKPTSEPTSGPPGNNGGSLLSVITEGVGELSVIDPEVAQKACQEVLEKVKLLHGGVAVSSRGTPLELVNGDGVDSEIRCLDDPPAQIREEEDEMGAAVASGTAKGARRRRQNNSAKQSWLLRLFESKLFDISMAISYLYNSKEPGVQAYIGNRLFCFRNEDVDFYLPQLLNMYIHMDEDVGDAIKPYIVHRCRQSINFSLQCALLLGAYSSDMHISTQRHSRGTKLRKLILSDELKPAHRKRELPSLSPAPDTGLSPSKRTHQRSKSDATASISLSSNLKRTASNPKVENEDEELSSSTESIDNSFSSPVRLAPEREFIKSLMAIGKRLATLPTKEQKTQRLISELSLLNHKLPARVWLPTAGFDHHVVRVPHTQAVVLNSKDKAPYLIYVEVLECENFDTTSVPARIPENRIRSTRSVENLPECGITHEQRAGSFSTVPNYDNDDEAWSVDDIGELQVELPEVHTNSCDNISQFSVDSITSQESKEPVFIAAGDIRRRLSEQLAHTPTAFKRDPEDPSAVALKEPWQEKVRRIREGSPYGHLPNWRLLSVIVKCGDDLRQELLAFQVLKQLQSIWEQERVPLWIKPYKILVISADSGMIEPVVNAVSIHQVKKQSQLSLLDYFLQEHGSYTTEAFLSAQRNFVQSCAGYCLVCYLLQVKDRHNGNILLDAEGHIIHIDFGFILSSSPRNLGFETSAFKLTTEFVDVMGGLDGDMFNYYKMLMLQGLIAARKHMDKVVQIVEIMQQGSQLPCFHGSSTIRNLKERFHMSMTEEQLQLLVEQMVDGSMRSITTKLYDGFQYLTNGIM
T4 sequence (Q5S007 970-2527 limits assumed): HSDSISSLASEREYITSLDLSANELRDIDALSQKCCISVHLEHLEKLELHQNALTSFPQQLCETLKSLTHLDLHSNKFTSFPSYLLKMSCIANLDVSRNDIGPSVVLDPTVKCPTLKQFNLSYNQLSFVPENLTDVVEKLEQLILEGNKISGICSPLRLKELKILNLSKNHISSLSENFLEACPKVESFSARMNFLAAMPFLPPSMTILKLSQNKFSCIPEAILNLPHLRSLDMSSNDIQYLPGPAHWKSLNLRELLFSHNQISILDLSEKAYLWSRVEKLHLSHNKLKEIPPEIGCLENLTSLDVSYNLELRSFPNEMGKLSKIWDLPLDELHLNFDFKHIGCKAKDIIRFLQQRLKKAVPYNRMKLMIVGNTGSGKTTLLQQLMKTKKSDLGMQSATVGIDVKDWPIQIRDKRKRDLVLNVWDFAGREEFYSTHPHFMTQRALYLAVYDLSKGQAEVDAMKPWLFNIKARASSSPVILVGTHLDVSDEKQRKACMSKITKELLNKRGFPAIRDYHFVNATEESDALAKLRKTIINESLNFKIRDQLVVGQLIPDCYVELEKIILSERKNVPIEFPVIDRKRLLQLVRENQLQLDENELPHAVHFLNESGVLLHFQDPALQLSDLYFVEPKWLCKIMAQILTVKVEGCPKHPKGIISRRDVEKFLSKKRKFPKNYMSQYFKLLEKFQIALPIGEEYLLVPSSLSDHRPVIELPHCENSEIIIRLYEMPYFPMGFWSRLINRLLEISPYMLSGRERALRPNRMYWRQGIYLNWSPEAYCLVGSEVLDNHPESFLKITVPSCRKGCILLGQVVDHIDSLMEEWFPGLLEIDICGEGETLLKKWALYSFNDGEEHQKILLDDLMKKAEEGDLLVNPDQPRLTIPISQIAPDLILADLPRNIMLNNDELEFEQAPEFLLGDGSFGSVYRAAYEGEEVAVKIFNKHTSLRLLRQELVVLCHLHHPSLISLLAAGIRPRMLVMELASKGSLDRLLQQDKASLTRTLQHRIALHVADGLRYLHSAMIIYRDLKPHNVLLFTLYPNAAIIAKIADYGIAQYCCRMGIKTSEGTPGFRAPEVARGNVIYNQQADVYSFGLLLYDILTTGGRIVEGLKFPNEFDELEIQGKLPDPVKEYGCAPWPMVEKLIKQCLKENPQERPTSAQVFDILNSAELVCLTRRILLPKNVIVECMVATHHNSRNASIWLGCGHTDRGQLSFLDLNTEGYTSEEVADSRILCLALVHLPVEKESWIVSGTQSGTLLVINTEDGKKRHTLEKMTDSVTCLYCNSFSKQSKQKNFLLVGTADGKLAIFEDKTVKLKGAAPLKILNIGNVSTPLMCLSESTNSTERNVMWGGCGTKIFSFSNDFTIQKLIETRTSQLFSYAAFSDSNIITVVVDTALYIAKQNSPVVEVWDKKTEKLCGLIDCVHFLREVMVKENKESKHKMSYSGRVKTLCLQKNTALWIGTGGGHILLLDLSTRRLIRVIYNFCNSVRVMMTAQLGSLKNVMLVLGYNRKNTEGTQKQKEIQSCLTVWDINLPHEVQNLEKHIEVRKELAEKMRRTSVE

| inhibition at 10 µM (GSG2 (Haspin); [3]) | inhibition at 10 µM (PI4KB (PI4K beta); [4]) | inhibition at 10 µM (PIP5K1C; [5]) | inhibition at 10 µM (LRRK2; [6]) | Compound | inhibition at 1 µM (GSG2 (Haspin); [1]) | inhibition at 10 µM (GSG2 (Haspin); [2]) | inhibition at 1 µM (PI4KB (PI4K beta); [1]) | inhibition at 10 µM (PI4KB (PI4K beta); [2]) | inhibition at 1 µM (PIP5K1C; [1]) | inhibition at 10 µM (PIP5K1C; [2]) | inhibition at 1 µM (LRRK2; [1]) | inhibition at 10 µM (LRRK2; [2]) |
| --- | --- | --- | --- | --- | --- | --- | --- | --- | --- | --- | --- | --- |
|  |  |  |  | COc1ccc2c(c1OC)c(=O)n1c3ccc(O)cc3c3ccnc2c31 [MW01, 5-Hydroxy-10,11-dimethoxy-9H-benzo[c]indolo[3,2,1-ij][1,5]naphthyridin-9-one] | 77% | 83% | 94% | 100% | 54% | 69% | 83% | 87% |
| 29% | 12% | 14% | 64% | COc1ccc2c(c1)c1ccnc3c4nc(OC)ccc4c(=O)n2c13 [MW01-E6, 5,15-dimethoxy-1,11,14-triazapentacyclo[10.7.1,0^2,7.0^8,^20.0^13,^18]icosa-2(7),3,5,8(20),9,11,13(18),14,16-nonaen-19-one] |  |  |  |  |  |  |  |  |
| 80% | 90% | 33% | 86% | O=c1c2cc(O)ccc2c2nccc3c4cc(O)ccc4n1c32 [MW01-E10, 5,16-dihydroxy-1,11-diazapentacyclo[10.7.1.0^2,^7.0^8,^20.0^13,^18]icosa-2(7),3,5,8(20),9,11,13(18),14,16-nonaen-19-one] |  |  |  |  |  |  |  |  |
| 24% | 36% | 8% | -4% | COc1ccc2c(c1)c1ccnc3c4ccnc(OC)c4c(=O)n2c13 [MW01-E14, 5,17-dimethoxy-1,11,16-triazapentacyclo[10.7.1.0^2,^7.0^8,^20.0^13,^18]icosa-2(7),3,5,8(20),9,11,13(18),14,16-nonaen-19-one] |  |  |  |  |  |  |  |  |
| 88% | 81% | 27% | 75% | O=c1c2cnccc2c2nccc3c4cc(O)ccc4n1c32 [MW01-E18, 5-hydroxy-1,11,16-triazapentacyclo[10.7.1.0^2,^7.0^8,^20.0^13,^18]icosa-2(7),3,5,8(20),9,11,13(18),14,16-nonaen-19-one] |  |  |  |  |  |  |  |  |
|  |  |  |  | COc1ccc2cc3c(N)nn(C(=O)c4cccc(N(C)C)c4)c3nc2c1 [MW05, (3-Amino-7-methoxypyrazolo[3,4-b]quinolin-1-yl)-[3-(dimethylamino)phenyl]methanone] | 4% | 20% | -2% | 43% | -1% | 26% | -3% | 5% |
| 36% | 9% | -2% | 8% | COc1ccc2nc3c(cc2c1)c(N)nn3C(=O)c1cccc(N(C)C)c1 [MW05-E2, 1-[3-(dimethylamino)benzoyl]-6-methoxy-1H-pyrazolo[3,4-b]quinolin-3-amine] |  |  |  |  |  |  |  |  |
